Test results published in PMC10004634 (PLOS ONE, 2023).
Entries after “also recorded” stand apart in the source; their conditions may differ.

System: TMD8 cells
Experiment: RT-qPCR of IRF4, BCL6, MYC mRNA
Assay type: cell-based, human
Conditions: 24 h, tirabrutinib 1 μM, BMS-345541 10 μM, MK-2206 1 μM, refametinib 0.1 μM
Description: After culturing, total RNA was isolated from cells using the RNeasy Plus Mini Kit (Qiagen), then cDNA was prepared from total RNA using the SuperScript VILO cDNA Synthesis Kit (Invitrogen) following the kit instructions. For quantification of each mRNA expression level, PCR was performed using TaqMan Fast Universal PCR Master Mix (Thermo Fisher Scientific) under the following conditions with the AriaMx Real Time PCR System (Agilent Technologies): 95°C for 3 min, followed by 40 cycles at 95°C for 5 s and 60°C for 20 s with continuous fluorescence measurement. All PCRs were performed in triplicate, and the mRNA expression of GAPDH was used as an internal control. The results (fold changes of the threshold cycle [Ct] relative to the control group) were obtained using the 2^−ΔΔCt method. The TaqMan probes for IRF4 (Assay ID: Hs00180031_m1), BCL6 (Assay ID: Hs00153368_m1), MYC (Assay ID: Hs00153408_m1), and GAPDH (Assay ID: Hs02786624_g1) were purchased from Thermo Fisher Scientific. Statistical tests were performed with the SAS 9.4 (SAS Institute Japan Ltd., Tokyo, Japan) TS1M4-based EXSUS system version 10.1.3 (CAC Corporation, Tokyo, Japan). The t-test or Dunnett test was used to compare mRNA expression in the DMSO- and compound-treated groups. The statistical tests were two-sided with a 5% significance level.

| Structure (SMILES) | IRF4 mRNA expression | MYC mRNA expression |
| --- | --- | --- |
| Cc1ccc2nc(NCCN)c3ncc(C)n3c2c1 [BMS-345541] | significant downregulation; also recorded: strongly inhibited | significant downregulation; also recorded: strong inhibition |
| NC1(c2ccc(-c3nc4ccn5c(=O)[nH]nc5c4cc3-c3ccccc3)cc2)CCC1 [MK-2206] | did not downregulate | did not downregulate |
| COc1cc(F)c(F)c(Nc2ccc(I)cc2F)c1NS(=O)(=O)C1(C[C@H](O)CO)CC1 [refametinib] |  | tended to downregulate; also recorded: partially downregulated |
